Measured values published in patent US8658642B2 (Axikin Pharmaceuticals, Inc., priority 2009, dated 2014).

Molecular target: T1, CCR3 (Homo sapiens, UniProt P51677)
T1 sequence (P51677 1-355): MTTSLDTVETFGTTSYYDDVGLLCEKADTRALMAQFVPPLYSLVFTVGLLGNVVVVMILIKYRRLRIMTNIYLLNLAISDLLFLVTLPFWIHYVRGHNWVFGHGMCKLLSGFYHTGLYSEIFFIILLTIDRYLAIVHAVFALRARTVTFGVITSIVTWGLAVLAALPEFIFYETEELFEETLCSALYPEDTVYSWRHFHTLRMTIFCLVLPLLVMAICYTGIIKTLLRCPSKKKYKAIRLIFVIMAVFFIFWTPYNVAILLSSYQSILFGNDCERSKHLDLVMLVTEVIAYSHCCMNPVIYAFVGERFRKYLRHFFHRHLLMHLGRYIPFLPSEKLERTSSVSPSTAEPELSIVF
Assay: CCR3 receptor binding assay ([125I]-labeled human eotaxin/CCL11 displacement on cells)
Conditions: 0.1 nM [125I]-labeled human eotaxin/CCL11, 2×10^5 cells/well, 60 min at room temperature
Method: CCR3 Receptor Binding Assay
Cells were washed once with PBS and resuspended in a binding buffer (25 mM HEPES pH 7.6, 5 mM MgCl2, 1 mM CaCl2, 0.5% BSA, 0.1% NaN3). […] of cell suspension (2×10^5 cells/well) and 0.1 nM [^125I]-labeled human eotaxin/CCL11 (2000 Ci/mmol specific activity) were mixed in a 96-well U-bottom polypropylene plate, and incubated for 60 min at room temperature for the binding reaction. The cell suspension was then transferred to a filtration plate (#MAFB, Millipore), and washed 3 times with the binding buffer containing 0.5 M NaCl, scintillant added, and the radioactivity was counted on a TopCount (Packard). For the determination of non-specific binding, the cell suspension and [^125I]-labeled human eotaxin/CCL11 were incubated in the presence of 500 nM of unlabeled human eotaxin/CCL11. See, lino et al., “Molecular cloning and functional characterization of cynomolgus monkey (Macaca fascicularis) CC chemokine receptor, CCR3,” Cytokine 2002, 19, 276-286.

Ki [nM] | Structure (SMILES)
500 to 5000 | N#Cc1ccc(Oc2cc(Cl)cc(Cl)c2)c(S(=O)(=O)N2CCN(C(=O)c3ccccc3F)CC2)c1 [Compound 85, 4-(3,5-Dichlorophenoxy)-3-(4-(2-fluorobenzoyl)piperazin-1-ylsulfonyl)benzonitrile]
> 5000 | N#Cc1ccc(Oc2cc(Cl)cc(Cl)c2)c(S(=O)(=O)N2CCN(C(=O)c3cccc(F)c3)CC2)c1 [Compound 86, 4-(3,5-Dichlorophenoxy)-3-(4-(3-fluorobenzoyl)piperazin-1-ylsulfonyl)benzonitrile]
> 5000 | N#Cc1ccc(Oc2cc(Cl)cc(Cl)c2)c(S(=O)(=O)N2CCN(C(=O)c3ccc(F)cc3)CC2)c1 [Compound 87, 4-(3,5-Dichlorophenoxy)-3-(4-(4-fluorobenzoyl)piperazin-1-ylsulfonyl)benzonitrile]
> 5000 | Cc1cc(C)cc(Sc2ccc(C#N)cc2S(=O)(=O)N2CCN(C(=O)c3ccc(C(F)(F)F)cc3)CC2)c1 [Compound 88, 4-(3,5-Dimethylphenylthio)-3-(4-(4-(trifluoromethyl)benzoyl)piperazin-1-ylsulfonyl)benzonitrile]
50 to 500 | Cc1cc(C)cc(Sc2ccc(C#N)cc2S(=O)(=O)N2CCN(C(=O)c3ccccc3)CC2)c1 [Compound 89, 3-(4-Benzoylpiperazin-1-ylsulfonyl)-4-(3,5-dimethylphenylthio)benzonitrile]
50 to 500 | Cc1ccc(C(=O)N2CCN(S(=O)(=O)c3cc(C#N)ccc3Sc3cc(C)cc(C)c3)CC2)cc1 [Compound 90, 4-(3,5-Dimethylphenylthio)-3-(4-(4-methylbenzoyl)piperazin-1-ylsulfonyl)benzonitrile]
50 to 500 | Cc1cc(C)cc(Sc2ccc(C#N)cc2S(=O)(=O)N2CCN(C(=O)c3cccc(C)c3)CC2)c1 [Compound 91, 4-(3,5-Dimethylphenylthio)-3-(4-(3-methylbenzoyl)piperazin-1-ylsulfonyl)benzonitrile]
> 5000 | Cc1cc(C)cc(Sc2ccc(C#N)cc2S(=O)(=O)N2CCN(C(=O)c3ccccc3C)CC2)c1 [Compound 92, 4-(3,5-Dimethylphenylthio)-3-(4-(2-methylbenzoyl)piperazin-1-ylsulfonyl)benzonitrile]
50 to 500 | Cc1cc(C)cc(Sc2ccc(C#N)cc2S(=O)(=O)N2CCN(C(=O)Nc3cccc(F)c3)CC2)c1 [Compound 93]
50 to 500 | CC(C)NC(=S)N1CCN(S(=O)(=O)c2cc(C#N)ccc2Oc2cc(Cl)cc(Cl)c2)CC1 [Compound 95]
500 to 5000 | N#Cc1ccc(Oc2cc(Cl)cc(Cl)c2)c(S(=O)(=O)N2CCN(C(=O)Oc3ccccc3)CC2)c1 [Compound 96]
50 to 500 | N#Cc1ccc(Oc2cc(Cl)cc(Cl)c2)c(S(=O)(=O)N2CCN(C(=O)NCc3ccccc3)CC2)c1 [Compound 97]
> 5000 | N#Cc1ccc(Sc2cc(Cl)cc(Cl)c2)c(S(=O)(=O)N2CCN(C(=O)c3ccc(C(F)(F)F)cc3)CC2)c1 [Compound 98]
> 5000 | N#Cc1ccc(Sc2cc(Cl)cc(Cl)c2)c(S(=O)(=O)N2CCN(C(=O)c3ccccc3)CC2)c1 [Compound 99]
> 5000 | CC(C)NC(=O)N1CCN(S(=O)(=O)c2cc(C#N)ccc2Sc2cc(Cl)cc(Cl)c2)CC1 [Compound 100]
> 5000 | CC(C)NC(=S)N1CCN(S(=O)(=O)c2cc(C#N)ccc2Sc2cc(Cl)cc(Cl)c2)CC1 [Compound 101]
> 5000 | Cc1cc(C)cc(Oc2ccc(C#N)cc2S(=O)(=O)N2CCN(C(=S)NC(C)C)CC2)c1 [Compound 103]
> 5000 | Cc1ccc(C(=O)N2CCN(S(=O)(=O)c3cc(C#N)ccc3Sc3cc(Cl)cc(Cl)c3)CC2)cc1 [Compound 104]
> 5000 | Cc1cccc(C(=O)N2CCN(S(=O)(=O)c3cc(C#N)ccc3Sc3cc(Cl)cc(Cl)c3)CC2)c1 [Compound 105]
> 5000 | Cc1ccccc1C(=O)N1CCN(S(=O)(=O)c2cc(C#N)ccc2Sc2cc(Cl)cc(Cl)c2)CC1 [Compound 106]
> 5000 | CC(=O)N1CCN(S(=O)(=O)c2cc(C#N)ccc2Oc2cc(C)cc(C)c2)CC1 [Compound 107]
> 5000 | Cc1cc(C)cc(Oc2ccc(C#N)cc2S(=O)(=O)N2CCN(C(=O)C(C)C)CC2)c1 [Compound 108]
≤ 50 | CC(=O)N1CCN(S(=O)(=O)c2cc(C#N)ccc2Oc2cc(Cl)cc(Cl)c2)CC1 [Compound 109]
≤ 50 | CC(C)C(=O)N1CCN(S(=O)(=O)c2cc(C#N)ccc2Oc2cc(Cl)cc(Cl)c2)CC1 [Compound 110]
≤ 50 | CC(=O)N1CCN(S(=O)(=O)c2cc(C#N)ccc2Sc2cc(Cl)cc(Cl)c2)CC1 [Compound 111]
> 5000 | CC(C)C(=O)N1CCN(S(=O)(=O)c2cc(C#N)ccc2Sc2cc(Cl)cc(Cl)c2)CC1 [Compound 112]
> 5000 | N#Cc1ccc(Sc2cc(Cl)cc(Cl)c2)c(S(=O)(=O)N2CCN(C(=O)c3cccc(F)c3)CC2)c1 [Compound 113]
500 to 5000 | Cc1ccc(C(=O)N2CCN(S(=O)(=O)c3cc(C#N)ccc3Oc3cc(C)cc(C)c3)CC2)cc1 [Compound 114]

Ki [nM] | Structure (SMILES)
> 5000 | Cc1ccc(NC(=O)N2CCN(S(=O)(=O)c3cc(C#N)ccc3Oc3cc(C)cc(C)c3)CC2)cc1 [Compound 115]
> 5000 | Cc1cc(C)cc(Oc2ccc(C#N)cc2S(=O)(=O)N2CCN(C(=O)Nc3ccc(C#N)cc3)CC2)c1 [Compound 116]
> 5000 | COc1ccc(C(=O)N2CCN(S(=O)(=O)c3cc(C#N)ccc3Oc3cc(C)cc(C)c3)CC2)cc1 [Compound 117]
> 5000 | COc1ccc(NC(=O)N2CCN(S(=O)(=O)c3cc(C#N)ccc3Oc3cc(C)cc(C)c3)CC2)cc1 [Compound 118]
> 5000 | Cc1cc(C)cc(Oc2ccc(C#N)cc2S(=O)(=O)N2CCN(C(=O)Nc3ccc([N+](=O)[O-])cc3)CC2)c1 [Compound 119]
> 5000 | CCN(CC)C(=O)N1CCN(S(=O)(=O)c2cc(C#N)ccc2Oc2cc(C)cc(C)c2)CC1 [Compound 120]
> 5000 | Cc1cc(C)cc(Oc2ccc(C#N)cc2S(=O)(=O)N2CCN(C(=S)N(C)C)CC2)c1 [Compound 121]
> 5000 | N#Cc1ccc(Oc2cc(Cl)cc(Cl)c2)c(S(=O)(=O)N2CCN(C(=O)c3ccco3)CC2)c1 [Compound 122]
> 5000 | N#Cc1ccc(Oc2cc(Cl)cc(Cl)c2)c(S(=O)(=O)N2CCN(C(=O)c3cccs3)CC2)c1 [Compound 123]
50 to 500 | N#Cc1ccc(Oc2cc(Cl)cc(Cl)c2)c(S(=O)(=O)N2CCN(C(=O)c3ccno3)CC2)c1 [Compound 124]
≤ 50 | N#Cc1ccc(Oc2cc(Cl)cc(Cl)c2)c(S(=O)(=O)N2CCN(C(N)=O)CC2)c1 [Compound 125]
> 5000 | Cc1cc(C(=O)N2CCN(S(=O)(=O)c3cc(C#N)ccc3Oc3cc(Cl)cc(Cl)c3)CC2)n(C)n1 [Compound 126]
≤ 50 | Cc1nnsc1C(=O)N1CCN(S(=O)(=O)c2cc(C#N)ccc2Oc2cc(Cl)cc(Cl)c2)CC1 [Compound 127]
500 to 5000 | N#Cc1ccc(Oc2cc(Cl)cc(Cl)c2)c(S(=O)(=O)N2CCN(C(=O)c3ccccn3)CC2)c1 [Compound 128]
> 5000 | N#Cc1ccc(Oc2cc(Cl)cc(Cl)c2)c(S(=O)(=O)N2CCN(C(=O)c3cc4ccccc4o3)CC2)c1 [Compound 129]
> 5000 | N#Cc1ccc(Oc2cc(Cl)cc(Cl)c2)c(S(=O)(=O)N2CCN(C(=O)c3ccc4nonc4c3)CC2)c1 [Compound 130]
> 5000 | N#Cc1ccc(Oc2cc(Cl)cc(Cl)c2)c(S(=O)(=O)N2CCN(C(=O)c3cc4ccccc4s3)CC2)c1 [Compound 131]
> 5000 | N#Cc1ccc(Oc2cc(Cl)cc(Cl)c2)c(S(=O)(=O)N2CCN(C(=O)c3nc4ccccc4s3)CC2)c1 [Compound 132]
50 to 500 | N#Cc1ccc(Oc2cc(Cl)cc(Cl)c2)c(S(=O)(=O)N2CCN(C(=O)c3cnccn3)CC2)c1 [Compound 133]
50 to 500 | N#Cc1ccc(Oc2cc(Cl)cc(Cl)c2)c(S(=O)(=O)N2CCN(C(=O)N3CCOCC3)CC2)c1 [Compound 134]
≤ 50 | N#Cc1ccc(Oc2cc(Cl)cc(Cl)c2)c(S(=O)(=O)N2CCN(C(=O)NCc3ccco3)CC2)c1 [Compound 135]
≤ 50 | N#Cc1ccc(Oc2cc(Cl)cc(Cl)c2)c(S(=O)(=O)N2CCN(C(=S)NCc3ccco3)CC2)c1 [Compound 136]
50 to 500 | N#Cc1ccc(Oc2cc(Cl)cc(Cl)c2)c(S(=O)(=O)N2CCN(C(=S)NCCN3CCOCC3)CC2)c1 [Compound 137]
50 to 500 | Cc1ccsc1C(=O)N1CCN(S(=O)(=O)c2cc(C#N)ccc2Oc2cc(Cl)cc(Cl)c2)CC1 [Compound 138]
≤ 50 | Cc1nnsc1C(=O)N1CCN(S(=O)(=O)c2cc(C#N)ccc2Sc2cc(Cl)cc(Cl)c2)CC1 [Compound 139]
≤ 50 | CC(=O)c1cccc(NC(=O)N2CCN(S(=O)(=O)c3cc(C#N)ccc3Oc3cc(Cl)cc(Cl)c3)CC2)c1 [Compound 140]
≤ 50 | N#Cc1ccc(Oc2cc(Cl)cc(Cl)c2)c(S(=O)(=O)N2CCN(C(=O)CCCCl)CC2)c1 [Compound 141]

Structure (SMILES) | Ki [nM]
N#Cc1ccc(Oc2cc(Cl)cc(Cl)c2)c(S(=O)(=O)N2CCN(C(=O)NCCCl)CC2)c1 [Compound 142] | 50 to 500
